Experimental data published in PMC11506481, “Influence of Harvesting Stage on Phytochemical Composition, Antioxidant, and Antidiabetic Activity of Immature Ceratonia siliqua L. Pulp from Béni Mellal-Khénifra Region, Morocco: In Silico, In Vitro, and In Vivo Approaches” (Current Issues in Molecular Biology, 2024).
Values after ≈ are worked out from the molar mass of the structure shown.

Biological target: T1, intestinal α-glucosidase
T1 construct: gene MAL12; human 5NN8 only used for docking
Test: sucrose hydrolysis, GOD-POD glucose read-out at […] nm
Assay type: biochemical
Details: sucrose as substrate; phosphate buffer pH 7.5; 37 °C

IC50: 0.089 ± 0.004 µg/mL (≈ 0.138 µM)
Compound: C[C@H]1O[C@H](O[C@H]2[C@H](O)[C@@H](O)[C@@H](O[C@H]3[C@H](O)[C@@H](O)C(O)O[C@@H]3CO)O[C@@H]2CO)[C@H](O)[C@@H](O)[C@@H]1N[C@H]1C=C(CO)[C@@H](O)[C@H](O)[C@H]1O (stereo partly shown) [acarbose]
